By Ki is commonly meant a dissociation constant, usually derived from enzyme kinetics or from competition with a known ligand.

We go through 13 compounds from patent US20240043404A1 (AbbVie Inc., priority 2009, published 2024).

Assay [1] concerns the target Bcl-2 (Homo sapiens (Human), UniProt P10415). Description: Time Resolved-Fluorescence Resonance Energy Transfer (TR-FRET) Bcl-2 binding assay. (In general: Time-resolved FRET reads energy transfer from a long-lived donor to a nearby acceptor.)
Method: The samples are then mixed on a shaker for 1 minute and incubated for an additional 3 hours at room temperature. For each assay, the probe/antibody and protein/probe/antibody were included on each assay plate as negative and positive controls, respectively.
The samples were then mixed on a shaker for 1 minute and incubated for an additional 3 hours at room temperature. For each assay, the probe/antibody and protein/probe/antibody were included on each assay plate as negative and positive controls, respectively.
The subject of assay [2] is RS4;11 cells. Description: RS4;11 cell viability assay (CellTiter Glo).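 Further: acute lymphoblastic leukemia line RS4,11, EC50 derived from percentage of viable cells after treatment relative to untreated controls, cell killing taken as a measure of Bcl-2 inhibition.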 In kind it is cell-based, human. Particulars: Homo sapiens, read-out: RS4. (In general: In ATP-based viability assays light output follows the ATP content of the culture.)
Method: The acute lymphoblastic leukemia (ALL) cell line RS4;11 was used as the primary human cell line to assess the cellular activity of Bcl-2 selective agents in vitro and their efficacy in vivo.
Cell cytotoxicity EC50 values were assessed using CellTiter Glo (Promega) according to the manufacturer's recommendations. The EC50 values were determined as a percentage of viable cells following treatment compared to the untreated control cells.
Assay [3] concerns RS4;11 cells. Particulars: RS4;11 acute lymphoblastic leukemia cell line; cited from earlier work.
[4] abbreviates: GST-Bcl-2 1 nM, F-Bak peptide probe 100 nM, Tb-anti-GST 1 nM, < means below limit of detection, read-out: TR-FRET Bcl-2 Binding Ki.
Setting [5] is: Table 5, direct comparison Z=N with corresponding analogs Z=C, read-out: Bcl-2 FRET ki.
[6] abbreviates: RS4-11, 48 h, 50,000 cells per well, 10% human serum, 48 hours, 11 EC50 Values.
[7] abbreviates: RS4-11, Table 5, direct comparison Z=N with corresponding analogs Z=C, 11 EC50.

Like-named read-outs stand apart in the source and are kept apart here.

Sequence of Bcl-2 (P10415 whole entry): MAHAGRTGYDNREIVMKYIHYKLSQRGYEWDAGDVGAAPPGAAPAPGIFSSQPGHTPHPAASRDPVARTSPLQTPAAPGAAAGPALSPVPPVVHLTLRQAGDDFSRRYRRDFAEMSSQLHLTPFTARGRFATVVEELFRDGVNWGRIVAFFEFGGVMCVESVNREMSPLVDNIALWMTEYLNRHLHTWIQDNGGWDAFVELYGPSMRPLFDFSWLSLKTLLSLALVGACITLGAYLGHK

For `CC1(C)CC(c2ccc(Cl)cc2)=C(CN2CCN(c3ccc(C(=O)NS(=O)(=O)c4ccc(NCC5CCOCC5)c([N+](=O)[O-])c4)c(Oc4cnc5[nH]ccc5c4)c3)CC2)CO1` [Example 15, 4-(4-{[4-(4-chlorophenyl)-6,6-dimethyl-5,6-dihydro-2H-pyran-3-yl]methyl}piperazin-1-yl)-N-({3-nitro-4-[(tetrahydro-2H-pyran-4-ylmethyl)amino]phenyl}sulfonyl)-2-(1H-pyrrolo[2,3-b]pyridin-5-yloxy)benzamide], the Ki in assay [1] (setting [4]) and in assay [1] (setting [5]) was below 0.01 nM each time. Besides, the EC50 in assay [2] (setting [6]) amounted to 12.8 nM; in assay [2] (setting [7]), 13 nM.

Take `CC1(C)CCC(CN2CCN(c3ccc(C(=O)NS(=O)(=O)c4ccc(OC[C@H]5CC[C@H](O)CC5)c([N+](=O)[O-])c4)c(Oc4cnc5[nH]ccc5c4)c3)CC2)=C(c2ccc(Cl)cc2)C1` [Example 196, Trans-4-(4-{[2-(4-chlorophenyl)-4,4-dimethylcyclohex-1-en-1-yl]methyl}piperazin-1-yl)-N-({4-[(4-hydroxycyclohexyl)methoxy]-3-nitrophenyl}sulfonyl)-2-(1H-pyrrolo[2,3-b]pyridin-5-yloxy)benzamide]: the Ki in assay [1] (setting [4]) is below 0.01 nM.

As to `CN(C)CC[C@H](CSc1ccccc1)Nc1ccc(S(=O)(=O)NC(=O)c2ccc(N3CCN(Cc4ccccc4-c4ccc(Cl)cc4)CC3)cc2)cc1[N+](=O)[O-]` [ABT-737, N-(4-(4-((4′-chloro(1,1′-biphenyl)-2-yl)methyl)piperazin-1-yl)benzoyl)-4-(((1R)-3-(dimethylamino)-1-((phenylsulfanyl)methyl)propyl)amino)-3-nitrobenzenesulfonamide], the “sensitivity of RS4;11 cells to inhibitor” value in assay [3] was “sensitive”.

As to `CC1(C)CCC(CN2CCN(c3ccc(C(=O)NS(=O)(=O)c4ccc(N[C@H]5CC[C@H](N6CCOCC6)CC5)c([N+](=O)[O-])c4)c(Oc4cnc5[nH]ccc5c4)c3)CC2)=C(c2ccc(Cl)cc2)C1` [Example 9, Trans-4-(4-{[2-(4-chlorophenyl)-4,4-dimethylcyclohex-1-en-1-yl]methyl}piperazin-1-yl)-N-({4-[(4-morpholin-4-ylcyclohexyl)amino]-3-nitrophenyl}sulfonyl)-2-(1H-pyrrolo[2,3-b]pyridin-5-yloxy)benzamide], the inhibition constant (Ki) in assay [1] (setting [5]) was below 0.01 nM. Moreover, the EC50 in assay [2] (setting [6]) amounted to 14.8 nM; in assay [2] (setting [7]) it was 15 nM.

`CC1(C)CCC(CN2CCN(c3ccc(C(=O)NS(=O)(=O)c4ccc(OC[C@H]5CC[C@H](O)CC5)c([N+](=O)[O-])c4)c(Oc4cnc5[nH]ccc5c4)c3)CC2)=C(c2ccc(Cl)cc2)C1` [Example 120, 2-(1H-pyrrolo[2,3-b]pyridin-5-yloxy)-4-(4-((2-(4-chlorophenyl)-4,4-dimethylcyclohex-1-enyl)methyl)piperazin-1-yl)-N-(4-((trans-4-hydroxycyclohexyl)methoxy)-3-nitrophenylsulfonyl)benzamide]: the Ki in assay [1] (setting [4]) was below 0.01 nM. The EC50 in assay [2] (setting [6]) was determined as 1.47 nM.

On to `CC1(C)CCC(CN2CCN(c3ccc(C(=O)NS(=O)(=O)c4ccc(OC[C@H]5CCN(C6COC6)C5)c([N+](=O)[O-])c4)c(Oc4cnc5[nH]ccc5c4)c3)CC2)=C(c2ccc(Cl)cc2)C1` [Example 184, 4-(4-{[2-(4-chlorophenyl)-4,4-dimethylcyclohex-1-en-1-yl]methyl}piperazin-1-yl)-N-[(3-nitro-4-{[(3S)-1-oxetan-3-ylpyrrolidin-3-yl]methoxy}phenyl)sulfonyl]-2-(1H-pyrrolo[2,3-b]pyridin-5-yloxy)benzamide], for which the inhibition constant (Ki) in assay [1] (setting [4]) is below 0.01 nM. Also, the EC50 in assay [2] (setting [6]) is 23.2 nM.

Consider `CC1(C)CCC(CN2CCN(c3ccc(C(=O)NS(=O)(=O)c4ccc(OCC5CCN(C6COC6)CC5)c([N+](=O)[O-])c4)c(Oc4cnc5[nH]ccc5c4)c3)CC2)=C(c2ccc(Cl)cc2)C1` [Example 191, 4-(4-{[2-(4-chlorophenyl)-4,4-dimethylcyclohex-1-en-1-yl]methyl}piperazin-1-yl)-N-({3-nitro-4-[(1-oxetan-3-ylpiperidin-4-yl)methoxy]phenyl}sulfonyl)-2-(1H-pyrrolo[2,3-b]pyridin-5-yloxy)benzamide], for which the Ki in assay [1] (setting [4]) is below 0.01 nM. Besides, the EC50 in assay [2] (setting [6]) came to 6.91 nM.

`COCCNc1ccc(S(=O)(=O)NC(=O)c2ccc(N3CCN(CC4=C(c5ccc(Cl)cc5)CC(C)(C)CC4)CC3)cc2Oc2cnc3[nH]ccc3c2)cc1[N+](=O)[O-]` [Example 10, 4-(4-{[2-(4-chlorophenyl)-4,4-dimethylcyclohex-1-en-1-yl]methyl}piperazin-1-yl)-N-({4-[(2-methoxyethyl)amino]-3-nitrophenyl}sulfonyl)-2-(1H-pyrrolo[2,3-b]pyridin-5-yloxy)benzamide]: in assay [1] (setting [5]), the inhibition constant (Ki) was below 0.01 nM. The EC50 in assay [2] (setting [6]) and in assay [2] (setting [7]) was 52 nM throughout.

In the case of `CC1(C)CCC(CN2CCN(c3ccc(C(=O)NS(=O)(=O)c4ccc(NC[C@H]5CCCOC5)c([N+](=O)[O-])c4)c(Oc4cnc5[nH]ccc5c4)c3)CC2)=C(c2ccc(Cl)cc2)C1` [Example 13, 4-(4-{[2-(4-chlorophenyl)-4,4-dimethylcyclohex-1-en-1-yl]methyl}piperazin-1-yl)-N-[(3-nitro-4-{[(3R)-tetrahydro-2H-pyran-3-ylmethyl]amino}phenyl)sulfonyl]-2-(1H-pyrrolo[2,3-b]pyridin-5-yloxy)benzamide], the inhibition constant (Ki) in assay [1] (setting [5]) was below 0.01 nM. The figures for the EC50 in assay [2] (setting [6]) and in assay [2] (setting [7]) were 23.2 nM and 23 nM, respectively.

For the compound `CN1CCC(Nc2ccc(S(=O)(=O)NC(=O)c3ccc(N4CCN(CC5=C(c6ccc(Cl)cc6)CC(C)(C)CC5)CC4)cc3Oc3cnc4[nH]ccc4c3)cc2[N+](=O)[O-])CC1` [Example 4, 4-(4-{[2-(4-chlorophenyl)-4,4-dimethylcyclohex-1-en-1-yl]methyl}piperazin-1-yl)-N-({4-[(1-methylpiperidin-4-yl)amino]-3-nitrophenyl}sulfonyl)-2-(1H-pyrrolo[2,3-b]pyridin-5-yloxy)benzamide], in assay [1] (setting [5]), the Ki was below 0.01 nM. Also, the results for the EC50 in assay [2] (setting [6]) and in assay [2] (setting [7]) were 18.5 nM and 19 nM, respectively.

In the case of `CC1(C)CCC(CN2CCN(c3ccc(C(=O)NS(=O)(=O)c4ccc(NC5CCN(C6CCOCC6)CC5)c([N+](=O)[O-])c4)c(Oc4ccc5[nH]ccc5c4)c3)CC2)=C(c2ccc(Cl)cc2)C1` [Example 89, 4-(4-{[2-(4-chlorophenyl)-4,4-dimethylcyclohex-1-en-1-yl]methyl}piperazin-1-yl)-2-(1H-indol-5-yloxy)-N-({3-nitro-4-[(1-tetrahydro-2H-pyran-4-ylpiperidin-4-yl)amino]phenyl}sulfonyl)benzamide], the Ki in assay [1] (read-out: Bcl-2 FRET ki) was found to be 0.074 nM. The figures for the EC50 in assay [2] (setting [6]) and in assay [2] (setting [7]) were 64.5 nM and 64 nM, respectively.

In turn, `CC1(C)CCC(CN2CCN(c3ccc(C(=O)NS(=O)(=O)c4ccc(OC[C@H]5CC[C@@H](N6CCOCC6)C5)c([N+](=O)[O-])c4)c(Oc4cnc5[nH]ccc5c4)c3)CC2)=C(c2ccc(Cl)cc2)C1` (relative stereo) [Example 188] showed a Ki in assay [1] below 0.01 nM. Besides, the EC50 in assay [2] (setting [6]) was found to be 16.4 nM.

On to `CC1(C)CCC(CN2CCN(c3ccc(C(=O)NS(=O)(=O)c4ccc(OCC5COCCO5)c([N+](=O)[O-])c4)c(Oc4cnc5[nH]ccc5c4)c3)CC2)=C(c2ccc(Cl)cc2)C1` (centres unmarked) [Example 12, 4-(4-{[2-(4-chlorophenyl)-4,4-dimethylcyclohex-1-en-1-yl]methyl}piperazin-1-yl)-N-{[4-(1,4-dioxan-2-ylmethoxy)-3-nitrophenyl]sulfonyl}-2-(1H-pyrrolo[2,3-b]pyridin-5-yloxy)benzamide], for which the Ki in assay [1] (setting [5]) is below 0.01 nM. Besides, the values for the EC50 in assay [2] (setting [6]) and in assay [2] (setting [7]) were 34.7 nM and 35 nM, respectively.
